Assay results as given in PubChem BioAssay (NCI).
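1) Cells in 96-well plates. 2) Compound, 48 h, 5 concentrations. 3) Linear interpolation between surrounding doses. 4) Unreached endpoint = highest concentration. GI50 = concentration required for 50% inhibition of growth. TGI marks complete inhibition of growth.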

Columns and labels:
Test in all cases: inhibition of tumour cell growth, NCI panel, 48 h
SNB-19 CNS = tested on: SNB-19 CNS
SN12C renal = tested on: SN12C renal
HCT-15 colon = tested on: HCT-15 colon
HCC-2998 colon = tested on: HCC-2998 colon
LOX IMVI melanoma = tested on: LOX IMVI melanoma
786-0 renal = tested on: 786-0 renal
MOLT-4 leukemia = tested on: MOLT-4 leukemia
PC-3 prostate = tested on: PC-3 prostate
NCI-H522 lung = tested on: NCI-H522 lung
COLO 205 colon = tested on: COLO 205 colon

Compound | TGI (SNB-19 CNS) | TGI (SN12C renal) | TGI (HCT-15 colon) | TGI (HCC-2998 colon) | TGI (LOX IMVI melanoma) | TGI (786-0 renal) | TGI (MOLT-4 leukemia) | TGI (PC-3 prostate) | TGI (NCI-H522 lung) | TGI (COLO 205 colon) | GI50 (SN12C renal) | GI50 (PC-3 prostate) | GI50 (NCI-H522 lung) | GI50 (SNB-19 CNS) | GI50 (HCT-15 colon) | GI50 (HCC-2998 colon) | GI50 (LOX IMVI melanoma) | GI50 (COLO 205 colon) | GI50 (MOLT-4 leukemia)
O=c1c(S(=O)(=O)Oc2ccccc2)coc2cc(F)ccc12 | > 100 µM | > 100 µM | > 100 µM | > 100 µM | > 100 µM | > 100 µM | > 100 µM | > 100 µM | > 100 µM |  |  |  |  |  |  |  |  |  | 
N#CI1OC(C(F)(F)F)(C(F)(F)F)c2ccccc21 |  | 68 µM | 32.6 µM | 36.1 µM | 43.3 µM | 27.2 µM |  | 30.1 µM | 27.3 µM | 26.8 µM |  |  |  |  |  |  |  |  | 
CCCN(CCC)c1c([N+](=O)[O-])cc(C(=O)N(C)C)cc1[N+](=O)[O-] |  | > 100 µM | > 100 µM | > 100 µM |  | > 100 µM | > 100 µM |  | > 100 µM | > 100 µM |  |  |  |  |  |  |  |  | 
CC(C)=CCC/C(C)=C/CC/C(C)=C/CSc1ccc(Cl)cc1C(=O)O | 34.4 µM | 48 µM | 34.7 µM | 34.7 µM | 32 µM | 30.8 µM | 49.9 µM | 29.7 µM |  | 51.6 µM |  |  |  |  |  |  |  |  | 
C/C(=N\n1c(Cc2ccccc2)n[nH]c1=O)c1ccc([N+](=O)[O-])cc1 | > 100 µM | > 100 µM | > 100 µM |  | > 100 µM | > 100 µM | > 100 µM | > 100 µM | > 100 µM | > 100 µM |  |  |  |  |  |  |  |  | 
O=C(CCC(=O)OCC1OC(O)(CC2OC(CO)C(O)C(O)C2O)C(O)C1O)OCc1ccccc1 (centres undefined) | > 100 µM | > 100 µM | > 100 µM | > 100 µM | > 100 µM | > 100 µM |  | > 100 µM | > 100 µM | > 100 µM |  |  |  |  |  |  |  |  | 
CC(C)(Oc1ccc(C(=O)c2ccc(Cl)cc2)cc1Cl)C(=O)N1CCN(c2ccccc2)CC1 | > 100 µM |  | > 100 µM |  | > 100 µM | > 100 µM | > 100 µM |  | > 100 µM |  |  |  |  |  |  |  |  |  | 
O=C(c1ccccc1)n1[nH]c(=O)n(-c2ccc(Cl)cc2)c1=O | 83.3 µM | > 100 µM | > 100 µM | > 100 µM | > 100 µM | > 100 µM | > 100 µM | > 100 µM |  | > 100 µM |  |  |  |  |  |  |  |  | 
O=[N+]([O-])c1ccc(Cl)cc1N/N=C/c1cccs1 | > 100 µM | > 100 µM | > 100 µM | > 100 µM |  | > 100 µM | > 100 µM | > 100 µM | > 100 µM | > 100 µM |  |  |  |  |  |  |  |  | 
Clc1cccc(N=C/C=C/Nc2cccc(Cl)c2)c1 |  | 27 µM | 37.7 µM | 25.2 µM | 20.6 µM | 37.4 µM | 73.2 µM | 28.4 µM | 29.3 µM | 29.8 µM |  |  |  |  |  |  |  |  | 
CCCCNCC(O)c1cc(-c2ccc(C(F)(F)F)cc2)nc(-c2ccc(C(F)(F)F)cc2)c1 (centres undefined) |  | 3.55 µM |  |  |  |  |  | 3.05 µM | 3.53 µM |  | 1.9 µM | 1.52 µM | 1.8 µM |  |  |  |  |  | 
Oc1ccccc1C=Nc1ccccc1N=Cc1ccccc1O | > 100 µM | > 100 µM | > 100 µM | > 100 µM | > 100 µM | > 100 µM | > 100 µM |  | 45.7 µM | > 100 µM |  |  |  |  |  |  |  |  | 
O=C1C=C(NCCc2cc(Br)c(O)c(Br)c2)C(=O)c2[nH]cnc21 | > 100 µM | > 100 µM | > 100 µM | > 100 µM | > 100 µM | > 100 µM |  | > 100 µM | 87.4 µM | > 100 µM |  |  |  |  |  |  |  |  | 
CCOC(=O)O/N=C1/C(c2c(O)[nH]c3ccccc23)=Nc2ccccc21 | 95.1 µM | 23.2 µM | 20.4 µM | 6.46 µM | 26.6 µM | 28 µM | > 100 µM |  | 30.2 µM | 28.8 µM |  |  |  |  |  |  |  |  | 
Cc1[nH]c(=O)[nH]c(=O)c1C(=O)N(CCO)Cc1ccccc1 | > 100 µM | > 100 µM | > 100 µM | > 100 µM | > 100 µM |  | > 100 µM | 94.8 µM | > 100 µM | 45.7 µM |  |  |  |  |  |  |  |  | 
COC1CCC(n2c([C@@H]3CCCC(=O)N3c3ccc(F)c(F)c3)nc3cc(-c4c(C)noc4C)ccc32)CC1 (some centres undefined) | > 100 µM | 29.6 µM | 38.3 µM | 19.6 µM | 16.9 µM |  | 72.2 µM | 44.1 µM | 19.8 µM | 17.8 µM | 10.3 µM | 3.5 µM | 2.93 µM | 9.31 µM | 4.73 µM | 4.19 µM | 4.13 µM | 2.16 µM | 16.9 µM
COc1cc(C2C3=C(N=C4SC(C(C)=O)=C(C)N42)c2ccccc2CC3)cc(OC)c1OC (centres undefined) | > 100 µM | > 100 µM |  | > 100 µM | > 100 µM | > 100 µM |  | > 100 µM |  | > 100 µM |  |  |  |  |  |  |  |  | 
c1ccc2nn(C3CCCCO3)nc2c1 (centres undefined) | > 100 µM | > 100 µM | > 100 µM | > 100 µM |  | > 100 µM | > 100 µM | > 100 µM | > 100 µM | > 100 µM |  |  |  |  |  |  |  |  | 
Cc1ccc(Nc2ccc(Nc3ccc(C)cc3S(=O)(=O)O)c3c2C(=O)c2ccccc2C3=O)c(S(=O)(=O)O)c1 | > 100 µM | > 100 µM | > 100 µM | > 100 µM |  | > 100 µM | > 100 µM |  | > 100 µM | > 100 µM |  |  |  |  |  |  |  |  | 
COC(=O)C(N)CCCC(N)C(=O)NC(C)C(=O)NC(CCC(=O)NCCCNc1ccc([N+](=O)[O-])c2[nH]c3ccccc3c(=O)c12)C(N)=O (centres undefined) | 15 µM |  | 15 µM | 21.8 µM | 13 µM | 16.6 µM |  | 19.8 µM |  | 15.2 µM |  |  |  |  |  |  |  |  | 
COc1c(Cl)c(Cl)c(OC)c2c1C(=O)C=CC2=O | > 100 µM | 62.2 µM | > 100 µM | > 100 µM | 30.2 µM | 31.3 µM | 46.7 µM |  | 31.7 µM | 31.7 µM |  |  |  |  |  |  |  |  | 
CC1(CO)C(=O)OC12CCCCC2 (centres undefined) | > 100 µM | > 100 µM |  | > 100 µM | > 100 µM | > 100 µM | > 100 µM |  | > 100 µM | > 100 µM |  |  |  |  |  |  |  |  | 
Cn1c(=O)c2[nH]c(-n3nc(-c4ccccc4)cc3N)nc2n(C)c1=O |  | > 100 µM | > 100 µM | > 100 µM |  | > 100 µM | > 100 µM | > 100 µM |  | 88.7 µM |  |  |  |  |  |  |  |  | 
